Read-outs that look alike come from different tables or passages of the source.
Assay: In vivo microdialysis pharmacokinetics of LVFX without transporter inhibitors
Parameters: species or system rat
Settings: for AUC(0-inf) / Cmax / AUC(0-t) / Tmax / Kp / MRT / half-life: rat; for AUC(0-inf) / Cmax / AUC(0-t) / Tmax / MRT / half-life: iv; for AUC(0-inf) / Cmax / AUC(0-t) / MRT / half-life: 50 mg/kg, mean ± SD; for AUC(0-t): read-out: AUC0–180 (converted); for Kp: intravenous, LVFX 50 mg/kg tail vein, no inhibitor
Protocol: On the day of surgery, rats were anesthetized using inhaled isoflurane via a facemask. The rats were placed in a stereotaxic frame (Gene&I), and the body temperature was maintained with a homoeothermic blanket set at 37°C. A midline incision was made to expose the skull. According to the Paxinos and Watson atlas, two microdialysis intracerebral guide cannulae (Eicom Co.) were implanted into the hippocampus CA1 region (Hp‐CA1 coordinates: AP −4.16 mm; ML −2.2 mm; DV −2.9 mm) and lateral ventricle (LV coordinates: AP −1.4 mm; ML +2.2 mm; DV −3.4 mm). Fixed to the skull using a screw and dental cement. After 3 days of recovery, the rats were anesthetized with isoflurane again. An intravascular probe (TP‐100‐20; 20 mm, Eicom Co.) was implanted into the jugular vein toward the right atrium. After the blood microdialysis probe was positioned within the jugular vein, the pipeline was connected to perfuse with ACD solution (citric acid 3.5 mM; sodium citrate 7.5 mM; dextrose 13.6 mM) at a flow rate of […], and the Hamilton microinjection pump was used for continuous perfusion. After stopping isoflurane inhalation, the rats were allowed to wake up naturally on the homoeothermic blanket. The awake rats were placed in a device that allowed them to move freely. Animals were allowed to recover for an additional 24 h.
All microdialysate concentrations (C m) from the hippocampal ECF and lateral ventricle CSF were converted to the unbound drug concentration (C u) at the target site using the following formula: C u = C m/R dial.
A total of 32 rats were randomly divided into the following groups: • Control group, N = 12: vehicle solution + LVFX (50 mg/kg). • TAR group, N = 5: Tariquidar (8 mg/kg) + LVFX (50 mg/kg). • Ko143 group, N = 5: Ko143 (15 mg/kg) + LVFX (50 mg/kg). • MK571 group, N = 5: MK571 (20 mg/kg) + LVFX (50 mg/kg). • PRO group, N = 5: Probenecid (50 mg/kg) + LVFX (50 mg/kg).
Given that the solvents of intervention drugs were different, the control group was subdivided into four subgroups (n = 3). According to the preparation method of the transporter regulator, an equal volume of solvent was used as the control.
Levofloxacin was freshly dissolved in isotonic saline and administered via tail vein injection. Thirty minutes before LVFX administration, the intervention drugs of each group were injected intraperitoneally. To reduce the possible effect of solvents on BBB or BCSFB permeability of LVFX, we prioritized water as the solvent. However, Tariquidar and Ko143 are insoluble in water, and a cosolvent must be used to prepare agents that animals can tolerate. According to the different physicochemical properties of these four inhibitors, the preparation of each transporter inhibitor solution in this experiment was as follows. • P‐glycoprotein (P‐gp) inhibitor Tariquidar[22]: Tariquidar was freshly dissolved in DMSO to 8 mg/ml and then diluted to 4 mg/ml with a solution containing 10% Tween‐80, 25% PEG300, and 65% sterile water. • Breast cancer resistance protein (BCRP) inhibitor Ko143[23]: Ko143 was freshly dissolved in DMSO to 15 mg/ml and then diluted to 7.5 mg/ml with a solution containing 10% Tween‐80, 25% PEG300, and 65% sterile water. • Multidrug resistance‐associated proteins (MRPs) inhibitor MK571[24]: MK571 sodium salt hydrate was dissolved in 1.25% (w/v) aq sodium hydrogen carbonate (NaHCO3) solution to obtain a concentration of 10 mg/ml. • Organic anion transporters (OATs) inhibitor probenecid[25]: Probenecid was dissolved in NaOH (pH = 9.0–9.2) alkalized physiological saline to obtain a concentration of 25 mg/ml.
The pipelines where the blood and brain probes were installed were perfused at the speed of 2 μl/min with ACD solution and ACSF, respectively. Two brain probes were inserted into guide cannulas of the target site and allowed to equilibrate for 1 h. Subsequently, the rats were treated according to their corresponding groups in the device where they could move freely.

[1] = CSF (lateral ventricle microdialysate), CSF, Group 1: vehicle solution of Tariquidar/Ko143 + LVFX 50 mg/kg, n=3
[2] = CSF (lateral ventricle microdialysate), CSF, Group 2: 1.25% NaHCO3 solution + LVFX 50 mg/kg, n=3
[3] = CSF (lateral ventricle microdialysate), CSF, Group 4: LVFX 50 mg/kg alone, n=3
[4] = CSF (lateral ventricle microdialysate), pH 9, CSF, Group 3: physiological saline alkalinized with NaOH (pH 9.0–9.2) + LVFX 50 mg/kg, n=3
[5] = CSF, CSF, Group 1: vehicle solution of Tariquidar/Ko143 + LVFX 50 mg/kg, n=3
[6] = CSF, CSF, Group 2: 1.25% NaHCO3 solution + LVFX 50 mg/kg, n=3
[7] = CSF, CSF, Group 4: LVFX 50 mg/kg alone, n=3
[8] = CSF, pH 9, CSF, Group 3: physiological saline alkalinized with NaOH (pH 9.0–9.2) + LVFX 50 mg/kg, n=3
[9] = blood (microdialysate, unbound), blood, Group 1: vehicle solution of Tariquidar/Ko143 + LVFX 50 mg/kg, n=3
[10] = blood (microdialysate, unbound), blood, Group 2: 1.25% NaHCO3 solution + LVFX 50 mg/kg, n=3
[11] = blood (microdialysate, unbound), blood, Group 4: LVFX 50 mg/kg alone, n=3
[12] = blood (microdialysate, unbound), pH 9, blood, Group 3: physiological saline alkalinized with NaOH (pH 9.0–9.2) + LVFX 50 mg/kg, n=3
[13] = blood, blood, control group, vehicle + LVFX 50 mg/kg tail vein, N=12
[14] = brain ECF, brain ECF, Group 1: vehicle solution of Tariquidar/Ko143 + LVFX 50 mg/kg, n=3
[15] = brain ECF, brain ECF, Group 2: 1.25% NaHCO3 solution + LVFX 50 mg/kg, n=3
[16] = brain ECF, brain ECF, Group 4: LVFX 50 mg/kg alone, n=3
[17] = brain ECF, pH 9, brain ECF, Group 3: physiological saline alkalinized with NaOH (pH 9.0–9.2) + LVFX 50 mg/kg, n=3
[18] = hippocampal brain ECF (microdialysate, unbound), hippocampal brain ECF, control group, vehicle + LVFX 50 mg/kg tail vein, N=12
[19] = lateral ventricle CSF (microdialysate, unbound), lateral ventricle CSF, control group, vehicle + LVFX 50 mg/kg tail vein, N=12

- T max (CSF, Group 2: 1.25% NaHCO3 solution + LVFX 50 mg/kg, n=3): 15 min
- T max (CSF, Group 4: LVFX 50 mg/kg alone, n=3): 15 min
- T max (blood, Group 2: 1.25% NaHCO3 solution + LVFX 50 mg/kg, n=3): 15 min
- T max (blood, control group, vehicle + LVFX 50 mg/kg tail vein, N=12): 15 min
- T max (brain ECF, Group 2: 1.25% NaHCO3 solution + LVFX 50 mg/kg, n=3): 15 min
- T max (brain ECF, Group 4: LVFX 50 mg/kg alone, n=3): 15 min
- AUC(0-inf) [1]: 4080 ng·h/mL
- Cmax [1]: 3540 ± 150 ng/mL
- AUC(0-t) [1]: 3810 ng·h/mL
- AUC(0-inf) [2]: 4490 ng·h/mL
- Cmax [2]: 3860 ± 320 ng/mL
- AUC(0-t) [2]: 4140 ng·h/mL
- Cmax [3]: 3480 ± 370 ng/mL
- AUC(0-t) [3]: 4330 ng·h/mL
- AUC(0-inf) [4]: 4950 ng·h/mL
- Cmax [4]: 3700 ± 140 ng/mL
- AUC(0-t) [4]: 4490 ng·h/mL
- Tmax [1]: 15 min
- Tmax (CSF (lateral ventricle microdialysate), CSF, Group 3: physiological saline alkalinized with NaOH (pH 9.0–9.2) + LVFX 50 mg/kg, n=3): 15 min
- Kp (CSF / blood (unbound, microdialysate), AUCu,CSF/AUCu,blood, control group, N=12, read-out: K p,uu,CSF): 0.412 ± 0.024
- MRT [5]: 70.8 min
- half-life [5]: 38 ± 11.9 min
- MRT [6]: 74 min
- half-life [6]: 50.6 ± 8.78 min
- AUC(0-inf) [7]: 4680 ng·h/mL
- MRT [7]: 76.7 min
- half-life [7]: 42.2 ± 5.6 min
- MRT [8]: 81.8 min
- half-life [8]: 45.8 ± 19.7 min
- AUC(0-inf) [9]: 11000 ng·h/mL
- MRT [9]: 63.9 min
- half-life [9]: 40.5 ± 5.68 min
- AUC(0-t) [9]: 10300 ng·h/mL
- AUC(0-inf) [10]: 11700 ng·h/mL
- MRT [10]: 73.9 min
- half-life [10]: 50.5 ± 9.53 min
- AUC(0-t) [10]: 10700 ng·h/mL
- AUC(0-inf) [11]: 11700 ng·h/mL
- MRT [11]: 86.2 min
- half-life [11]: 60.6 ± 11.2 min
- AUC(0-t) [11]: 10200 ng·h/mL
- AUC(0-inf) [12]: 10100 ng·h/mL
- MRT [12]: 69.3 min
- half-life [12]: 45.3 ± 6.27 min
- AUC(0-t) [12]: 9340 ng·h/mL
- Tmax [11]: 15 min
- Cmax (blood, blood, Group 1: vehicle solution of Tariquidar/Ko143 + LVFX 50 mg/kg, n=3): 10400 ± 1040 ng/mL
- Cmax (blood, blood, Group 2: 1.25% NaHCO3 solution + LVFX 50 mg/kg, n=3): 10700 ± 320 ng/mL
- Cmax (blood, blood, Group 4: LVFX 50 mg/kg alone, n=3): 9970 ± 590 ng/mL
- AUC(0-inf) [13]: 11100 ng·h/mL
- Cmax [13]: 10200 ± 700 ng/mL
- MRT [13]: 73.3 min
- half-life [13]: 49.2 ± 10.6 min
- AUC(0-t) [13]: 10200 ng·h/mL
- Cmax (blood, pH 9, blood, Group 3: physiological saline alkalinized with NaOH (pH 9.0–9.2) + LVFX 50 mg/kg, n=3): 9780 ± 390 ng/mL
- Kp (brain ECF / blood, AUCu,ECF/AUCu,blood, control group, N=12, read-out: K p,uu,ECF): 0.34 ± 0.017
- AUC(0-inf) [14]: 3730 ng·h/mL
- Cmax [14]: 2920 ± 520 ng/mL
- MRT [14]: 74.1 min
- half-life [14]: 39.8 ± 14.3 min
- AUC(0-t) [14]: 3480 ng·h/mL
- AUC(0-inf) [15]: 3600 ng·h/mL
- Cmax [15]: 2720 ± 150 ng/mL
- MRT [15]: 84.1 min
- half-life [15]: 53.4 ± 9.24 min
- AUC(0-t) [15]: 3240 ng·h/mL
- AUC(0-inf) [16]: 3940 ng·h/mL
- Cmax [16]: 3050 ± 760 ng/mL
- MRT [16]: 80.9 min
- half-life [16]: 49 ± 17.9 min
- AUC(0-t) [16]: 3600 ng·h/mL
- AUC(0-inf) [17]: 3820 ng·h/mL
- Cmax [17]: 2540 ± 170 ng/mL
- MRT [17]: 84 min
- half-life [17]: 49.8 ± 20.7 min
- AUC(0-t) [17]: 3470 ng·h/mL
- AUC(0-inf) [18]: 3770 ng·h/mL
- Cmax [18]: 2710 ± 300 ng/mL
- MRT [18]: 80.8 min
- half-life [18]: 48 ± 14.7 min
- AUC(0-t) [18]: 3450 ng·h/mL
- Tmax [18]: 15 min
- Tmax (blood, Group 1: vehicle solution of Tariquidar/Ko143 + LVFX 50 mg/kg, n=3): 15 min
- Tmax (blood, Group 3: physiological saline alkalinized with NaOH (pH 9.0–9.2) + LVFX 50 mg/kg, n=3): 15 min
- Tmax (brain ECF, Group 1: vehicle solution of Tariquidar/Ko143 + LVFX 50 mg/kg, n=3): 15 min
- Tmax (brain ECF, Group 3: physiological saline alkalinized with NaOH (pH 9.0–9.2) + LVFX 50 mg/kg, n=3): 15 min
- AUC(0-inf) [19]: 4550 ng·h/mL
- Cmax [19]: 3650 ± 270 ng/mL
- MRT [19]: 75.8 min
- half-life [19]: 44.1 ± 11.8 min
- AUC(0-t) [19]: 4190 ng·h/mL
- Tmax [19]: 15 min
- difference in LVFX concentration (and AUC value) between brain ECF and CSF (with or without treatment with transporter inhibitors): < 3 fold
SMILES: C[C@H]1COc2c(N3CCN(C)CC3)c(F)cc3c(=O)c(C(=O)O)cn1c23 [LVFX, Levofloxacin]

From publication PMC9804084, “Multiple drug transporters contribute to the brain transfer of levofloxacin” (CNS Neuroscience & Therapeutics, 2022)
